In patent US6525001B1, “Substituted pyrimidine and pyridine herbicides” (Mid-American Commercialization Corporation, priority 1997, dated 2003):

Legend:
Assay type in all cases: in vivo
[1] = tested on: bedstraw (Galium aparine); assay: Test B pre-/postemergence; set-up: key: 0 is no effect; 10 is complete control; details: for Bedstraw plant response rating: Preemergence
How it was run: (§1)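 Response scores run from 0, meaning no effect, to 10, meaning complete control, assigned by eye relative to controls twelve to sixteen days after spraying. Treatment was both preemergence on planted seed and postemergence on plants at the 1- to 4-leaf stage.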

[2] = tested on: cocklebur (Xanthium strumarium); assay: Test B pre-/postemergence; set-up: key: 0 is no effect; 10 is complete control; details: for Cocklebur plant response rating: Preemergence
How it was run: as §1

[3] = tested on: wheat (Triticum aestivum); assay: Test B pre-/postemergence; set-up: key: 0 is no effect; 10 is complete control
How it was run: as §1

[4] = tested on: velvetleaf (Abutilon theophrasti); assay: Test B pre-/postemergence; set-up: key: 0 is no effect; 10 is complete control
How it was run: as §1

[5] = tested on: crabgrass (Digitaria sanguinalis); assay: Test B pre-/postemergence; set-up: key: 0 is no effect; 10 is complete control; details: for Crabgrass plant response rating: Preemergence
How it was run: as §1

corn (Zea mays) = assay: Test B pre-/postemergence; set-up: key: 0 is no effect; 10 is complete control; details: for Corn plant response rating: Preemergence
How it was run: as §1

[6] = tested on: momingglory (Ipomoea hederacea); assay: Test B pre-/postemergence; set-up: key: 0 is no effect; 10 is complete control
How it was run: as §1

[7] = tested on: sugar beet (Beta vulgaris); assay: Test B pre-/postemergence; set-up: key: 0 is no effect; 10 is complete control
How it was run: as §1

[8] = tested on: giant foxtail (Setaria faberii); assay: Test B pre-/postemergence; set-up: key: 0 is no effect; 10 is complete control
How it was run: as §1

wild oat (Avena fatua) = assay: Test B pre-/postemergence; set-up: key: 0 is no effect; 10 is complete control
How it was run: as §1

[9] = tested on: purple nutsedge (Cyperus rotundus); assay: Test B pre-/postemergence; set-up: key: 0 is no effect; 10 is complete control; details: Postemergence
How it was run: as §1

soybean (Glycine max) = assay: Test B pre-/postemergence; set-up: key: 0 is no effect; 10 is complete control
How it was run: as §1

[10] = tested on: blackgrass (Alopecurus myosuroides); assay: Test B pre-/postemergence; set-up: key: 0 is no effect; 10 is complete control; details: for Blackgrass plant response rating: Preemergence
How it was run: as §1

[11] = tested on: pigweed (Amaranthus retroflexus); assay: Test B pre-/postemergence; set-up: key: 0 is no effect; 10 is complete control
How it was run: as §1

[12] = tested on: broadleaf signalgrass (Brachiaria decumbens); assay: Test B pre-/postemergence; set-up: key: 0 is no effect; 10 is complete control; details: for B. signalgrass plant response rating: Preemergence
How it was run: as §1

rape (Brassica napus) = assay: Test B pre-/postemergence; set-up: key: 0 is no effect; 10 is complete control
How it was run: as §1

[13] = tested on: duck salad (Heteranthera limosa); assay: Test B flood test
How it was run: (§2)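 Each value is a visual injury score relative to controls, with 10 meaning complete control and 0 no effect. Evaluation took place twelve to sixteen days after the 2-leaf-stage plants were treated and kept in the greenhouse.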

[14] = tested on: smallflower flatsedge (Cyperus difformis); assay: Test B flood test
How it was run: as §2

rice (Oryza sativa) = assay: Test B flood test
How it was run: as §2

[15] = tested on: bamyardgrass (Echinochloa crus-galli); assay: Test B flood test
How it was run: as §2

[16] = Rate 250 g/ha, Postemergence (so in the source)
[17] = Rate 62 g/ha, Postemergence (flood test)
[18] = Rate 125 g/ha, Postemergence, flood test
[19] = Rate 250 g/ha, Postemergence (flood test species)
[20] = Rate 125 g/ha, Postemergence section (flood test species)

## CCc1cnc(-n2cnc(C(F)(F)F)n2)nc1Cc1cccc(OC(F)(F)F)c1 [Compound 50]
[1]; Rate 62 g/ha, Postemergence
  Plant response rating, Bedstraw: 9
[1]; Rate 62 g/ha
  Bedstraw plant response rating: 2
[1]; Rate 125 g/ha, Postemergence
  Plant response rating, Bedstraw: 10
[1]; Rate 125 g/ha
  Bedstraw plant response rating: 7
[1]; [16]
  Plant response rating, Bedstraw: 9
[2]; Rate 62 g/ha, Postemergence
  Plant response rating, Cocklebur: 4
[2]; Rate 62 g/ha
  Cocklebur plant response rating: 0
[2]; Rate 125 g/ha, Postemergence
  Plant response rating, Cocklebur: 4
[2]; Rate 125 g/ha
  Cocklebur plant response rating: 0
[2]; Rate 250 g/ha, Postemergence
  Plant response rating, Cocklebur: 7
[2]; [16]
  Plant response rating, Cocklebur: 0
[3]; Rate 62 g/ha, Postemergence
  Wheat plant response rating: 3
[3]; Rate 62 g/ha, Preemergence
  Wheat plant response rating: 1
[3]; Rate 125 g/ha, Postemergence
  Wheat plant response rating: 3
[3]; Rate 125 g/ha, Preemergence
  Plant response rating, Wheat: 2
[3]; Rate 250 g/ha, Postemergence
  Plant response rating, Wheat: 4
[3]; [16]
  Plant response rating, Wheat: 2
[4]; Rate 62 g/ha, Postemergence
  Plant response rating, Velvetleaf: 6
[4]; Rate 62 g/ha, Preemergence
  Velvetleaf plant response rating: 4
[4]; Rate 125 g/ha, Postemergence
  Velvetleaf plant response rating: 7
[4]; Rate 125 g/ha, Preemergence
  Plant response rating, Velvetleaf: 7
[4]; Rate 250 g/ha, Postemergence
  Plant response rating, Velvetleaf: 8
[4]; [16]
  Plant response rating, Velvetleaf: 9
[5]; Rate 62 g/ha, Postemergence
  Plant response rating, Crabgrass: 1
[5]; Rate 62 g/ha
  Crabgrass plant response rating: 6
[5]; Rate 125 g/ha, Postemergence
  Plant response rating, Crabgrass: 2
[5]; Rate 125 g/ha
  Crabgrass plant response rating: 9
[5]; Rate 250 g/ha, Postemergence
  Plant response rating, Crabgrass: 6
[5]; [16]
  Plant response rating, Crabgrass: 9
Corn (Zea mays); Rate 62 g/ha, Postemergence
  Plant response rating, Corn: 1
Corn (Zea mays); Rate 62 g/ha
  Corn plant response rating: 0
Corn (Zea mays); Rate 125 g/ha, Postemergence
  Plant response rating, Corn: 2
Corn (Zea mays); Rate 125 g/ha
  Corn plant response rating: 0
Corn (Zea mays); Rate 250 g/ha, Postemergence
  Plant response rating, Corn: 2
Corn (Zea mays); [16]
  Plant response rating, Corn: 0
[6]; Rate 62 g/ha, Postemergence
  Plant response rating, Morningglory: 3
[6]; Rate 62 g/ha, Preemergence
  Morningglory plant response rating: 1
[6]; Rate 125 g/ha, Postemergence
  Morningglory plant response rating: 3
[6]; Rate 125 g/ha, Preemergence
  Morningglory plant response rating: 3
[6]; Rate 250 g/ha, Postemergence
  Plant response rating, Morningglory: 3
[6]; [16]
  Plant response rating, Morningglory: 4
[7]; Rate 62 g/ha, Postemergence
  Plant response rating, Sugarbeets: 7
[7]; Rate 62 g/ha, Preemergence
  Sugarbeets plant response rating: 6
[7]; Rate 125 g/ha, Postemergence
  Sugarbeets plant response rating: 8
[7]; Rate 125 g/ha, Preemergence
  Plant response rating, Sugarbeets: 6
[7]; Rate 250 g/ha, Postemergence
  Plant response rating, Sugarbeets: 10
[7]; [16]
  Plant response rating, Sugarbeets: 10
[8]; Rate 62 g/ha, Postemergence
  Plant response rating, Giant foxtail: 1
[8]; Rate 62 g/ha, Preemergence
  Giant foxtail plant response rating: 2
[8]; Rate 125 g/ha, Postemergence
  Giant foxtail plant response rating: 2
[8]; Rate 125 g/ha, Preemergence
  Giant foxtail plant response rating: 7
[8]; Rate 250 g/ha, Postemergence
  Plant response rating, Giant foxtail: 2
[8]; [16]
  Plant response rating, Giant foxtail: 8
Wild oat (Avena fatua); Rate 62 g/ha, Postemergence
  Wild oats plant response rating: 2
Wild oat (Avena fatua); Rate 62 g/ha, Preemergence
  Wild oats plant response rating: 3
Wild oat (Avena fatua); Rate 125 g/ha, Postemergence
  Wild oats plant response rating: 3
Wild oat (Avena fatua); Rate 125 g/ha, Preemergence
  Plant response rating, Wild oats: 4
Wild oat (Avena fatua); Rate 250 g/ha, Postemergence
  Plant response rating, Wild oats: 4
Wild oat (Avena fatua); [16]
  Plant response rating, Wild oats: 8
[9]; Rate 62 g/ha
  Plant response rating, Nutsedge: 2
[9]; Rate 125 g/ha
  Nutsedge plant response rating: 2
[9]; Rate 250 g/ha
  Plant response rating, Nutsedge: 2
Soybean (Glycine max); Rate 62 g/ha, Postemergence
  Plant response rating, Soybean: 6
Soybean (Glycine max); Rate 62 g/ha, Preemergence
  Soybean plant response rating: 1
Soybean (Glycine max); Rate 125 g/ha, Postemergence
  Soybean plant response rating: 7
Soybean (Glycine max); Rate 125 g/ha, Preemergence
  Plant response rating, Soybean: 1
Soybean (Glycine max); Rate 250 g/ha, Postemergence
  Plant response rating, Soybean: 7
Soybean (Glycine max); [16]
  Plant response rating, Soybean: 1
[10]; Rate 62 g/ha, Postemergence
  Plant response rating, Blackgrass: 2
[10]; Rate 62 g/ha
  Blackgrass plant response rating: 3
[10]; Rate 125 g/ha, Postemergence
  Plant response rating, Blackgrass: 5
[10]; Rate 125 g/ha
  Blackgrass plant response rating: 5
[10]; Rate 250 g/ha, Postemergence
  Plant response rating, Blackgrass: 8
[10]; [16]
  Plant response rating, Blackgrass: 10
[11]; Rate 62 g/ha, Postemergence
  Plant response rating, Redroot pigweed: 8
[11]; Rate 62 g/ha, Preemergence
  Redroot pigweed plant response rating: 7
[11]; Rate 125 g/ha, Postemergence
  Redroot pigweed plant response rating: 8
[11]; Rate 125 g/ha, Preemergence
  Redroot pigweed plant response rating: 9
[11]; Rate 250 g/ha, Postemergence
  Plant response rating, Redroot pigweed: 9
[11]; [16]
  Plant response rating, Redroot pigweed: 9
[12]; Rate 62 g/ha, Postemergence
  Plant response rating, B. signalgrass: 1
[12]; Rate 62 g/ha
  B. signalgrass plant response rating: 0
[12]; Rate 125 g/ha, Postemergence
  Plant response rating, B. signalgrass: 1
[12]; Rate 125 g/ha
  B. signalgrass plant response rating: 1
[12]; Rate 250 g/ha, Postemergence
  Plant response rating, B. signalgrass: 2
[12]; Rate 250 g/ha, Postemergence as printed in head r139 (second section for compounds 26-50)
  Plant response rating, B. signalgrass: 1
Rape (Brassica napus); Rate 62 g/ha, Postemergence
  Plant response rating, Rape: 9
Rape (Brassica napus); Rate 62 g/ha, Preemergence
  Rape plant response rating: 6
Rape (Brassica napus); Rate 125 g/ha, Postemergence
  Rape plant response rating: 10
Rape (Brassica napus); Rate 125 g/ha, Preemergence
  Rape plant response rating: 10
Rape (Brassica napus); Rate 250 g/ha, Postemergence
  Plant response rating, Rape: 10
Rape (Brassica napus); [16]
  Plant response rating, Rape: 10
[13]; [17]
  Plant response rating, Ducksalad: 4
[13]; [18]
  Plant response rating, Ducksalad: 5
[13]; [19]
  Plant response rating, Ducksalad: 8
[14]; [17]
  Plant response rating, S. Flatsedge: 6
[14]; [20]
  S. Flatsedge plant response rating: 8
[14]; [19]
  Plant response rating, S. Flatsedge: 9
Rice (Oryza sativa); [17]
  Plant response rating, Rice: 2
Rice (Oryza sativa); [20]
  Rice plant response rating: 3
Rice (Oryza sativa); [19]
  Plant response rating, Rice: 4
[15]; [17]
  Plant response rating, Barnyardgrass: 3
[15]; [18]
  Plant response rating, Barnyardgrass: 4
[15]; [19]
  Plant response rating, Barnyardgrass: 4
